PubChem BioAssay (NCI)
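Where inhibition never reached the appropriate level, the endpoint shown equals the highest concentration tested. Otherwise, values were interpolated linearly from a five-concentration, 48-hour dose response in 96-well plates. GI50 is the concentration that inhibits growth by half. TGI: concentration producing complete growth inhibition.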

Test system: MDA-MB-468 breast
Test: NCI-60 cell line screen, 48 h

SMILES	GI50	TGI
O=[N+]([O-])c1ccc(S(=O)Cc2ccccc2)c([N+](=O)[O-])c1 (configuration not stated)	1.7 µM	3.13 µM
CCc1n(Cc2ccc3ccccc3n2)cc[n+]1Cc1ccc2ccccc2n1		0.0994 µM
CCCc1c(CC)c(=N)c2ccccc2n1C	3.22 µM	48.7 µM
Cc1c(S(C)(=O)=O)c(-c2cc(F)cc(N3CCN(c4ccc(NS(=O)(=O)c5ccc(N[C@H](CCN6CCC(C(=O)OCCCP(=O)(O)O)CC6)CSc6ccccc6)c(S(=O)(=O)C(F)(F)F)c5)cc4)CC3)c2)c(-c2ccc(Cl)cc2)n1C(C)C	> 100 µM	> 100 µM
CCC(=O)O[C@H]1CC[C@H]2[C@@H]3CC[C@H]4CC(=O)[C@H](C)C[C@]4(C)[C@H]3CC[C@]12C	33.9 µM	> 100 µM
C=C1SC(=Nc2c(C)cc(C)cc2C)N(C(=O)c2sc3ccccc3c2Cl)C12CCCCC2	> 100 µM	> 100 µM
CC(=O)N(O)CCCCCNC(=O)CCC(=O)N(O)CCCCCNC(=O)CCC(=O)N(O)CCCCCN(CCCCCCCCCC[P+](c1ccccc1)(c1ccccc1)c1ccccc1)CCCCCCCCCC[P+](c1ccccc1)(c1ccccc1)c1ccccc1	1.68 µM	5.41 µM
FC(F)(F)c1cc(-c2nnc3n2N=C(N2CCCC2)CS3)cc(C(F)(F)F)c1	32 µM	> 50 µM
CC[C@@]1(O)C[C@H](OC2CC(N(C)C)C(OC3CC(O)C(OC4CCC(=O)C(C)O4)C(C)O3)C(C)O2)c2c(cc3c(c2O)C(=O)c2c(O)cccc2C3=O)[C@H]1C(=O)OC (some centres not stated)	0.017 µM	0.123 µM
O=C(/C=C/C12c3ccccc3C(c3ccccc31)C1C(=O)N(c3ccccc3)C(=O)C12)c1ccccc1 (configuration not stated)	1.87 µM	7.71 µM
O=C1C(c2c[nH]c3ccccc23)=C(c2c[nH]c3ccccc23)C(=O)N1O	> 25 µM	> 25 µM
C=CCN(/C=C1/C(=O)O[C@H](COC)[C@@]2(C)C1=C(O)C(=O)C1=C2[C@H](OC(C)=O)C[C@]2(C)C(=O)CC[C@@H]12)CC=C	0.101 µM	0.779 µM
CCn1c(C(=O)N(C2CC2)C2CC2)cc2c3c(ncn3C)c(Nc3cc(C)n(C)n3)nc21	> 100 µM	> 100 µM
Cc1ccc(/C(=N\N=C(N)N)c2ccccc2)cc1	0.426 µM	5.83 µM
CCN(CC)CCNc1ccc([N+](=O)[O-])c2sc3ccccc3c(=O)c12	1.45 µM	5.07 µM
COc1ccc(Nc2ncc(Br)c(NCCCNC(=O)C3CCC3)n2)cc1	15.4 µM	37 µM

SMILES	GI50	TGI
C[C@H](NC(=O)[C@@H]1CSSC[C@@H](NC(=O)c2nc3ccccc3cc2O)C(=O)NCC(=O)N1C)c1ccccc1	5.89 µM	13.2 µM
CC(C)CNCC(O)COc1ccc(C(C)(C)c2ccc(OCC(O)CNCC(C)C)cc2)cc1 (configuration not stated)	2.18 µM	4.91 µM
COc1ccc(N2Cc3cnc(Nc4ccccc4)nc3N([C@@H]3CC[C@@H](O)C3)C2=O)cc1	6.65 µM	> 25 µM
CCOC(=O)C1(Br)C(c2ccccc2)NC(=O)NC1(C)Br (configuration not stated)	24 µM	70.5 µM
O=C(Nc1ccccc1)Nc1nc2ccc([N+](=O)[O-])cc2s1	0.755 µM	4.45 µM
COc1cc2c(c(OC)c1OC)-c1ccc(N)c(=O)cc1[C@@H](NC(C)=O)CC2	< 0.01 µM	
Cc1cc(/C=C\c2ccc3ccccc3[n+]2C)c(O)c2ncccc12	0.316 µM	2.23 µM
CN1CCN(c2ccc(NC(=O)c3nc4ccc5[nH]ncc5c4c4c3CCCC4)cc2C(F)(F)F)CC1	0.859 µM	1.98 µM
COc1ccc2c(c1)c(CC(=O)[Se]CC#N)c(C)n2C(=O)c1ccc(Cl)cc1	1.2 µM	3.2 µM
Clc1ccc(N2N=C(c3cccc(Nc4ccncc4)c3)CC2c2ccc3c(c2)OCO3)cc1 (configuration not stated)	1.59 µM	3.08 µM
CCCCCCCNc1nc(C(=O)OCC)ncc1-c1ccc(C(F)(F)F)cc1	23.4 µM	93.1 µM
COc1ccc(-c2nc3sc(-c4ccc(Cl)cc4)cn3n2)cc1	2.08 µM	> 50 µM
CC1(C)CC[C@H](Nc2ncc(C(F)(F)F)c(-c3c[nH]c4c(P(C)(C)=O)c(C#N)ccc34)n2)CN1	1.22 µM	5.11 µM
O=Nc1c(-c2c(O)[nH]c3ccc([N+](=O)[O-])cc23)[nH]c2ccc(O)cc12	0.359 µM	2.85 µM
Oc1ccc(C(c2ccc(O)cc2)c2ccc(Cl)cn2)cc1	0.116 µM	0.577 µM
COc1ccccc1/C=C/[N+](=O)[O-]	1.65 µM	3.6 µM
